Patent publication US9920061B2, “Imidazo[1,5-A]pyrimidinyl carboxamide compounds and their use in the treatment of medical disorders” (Lysosomal Therapeutics Inc., priority 2016, dated 2018)
In brackets after ≈: the same amount, converted by molar mass.

Key:
[1] = molecular target: T1, glucocerebrosidase (Gcase) (Homo sapiens, UniProt P04062); experiment: Glucocerebrosidase (Gcase) activation assay, 4-methylumbelliferyl-beta-D-glucopyranoside substrate, with saposin C; format: biochemical; settings: for activation at 0.1 µM: test compound at 0.1 μM, read-out: Percent Gcase Activation, 0.1 μM Test Compound; for activation at 1 µM: test compound at 1.0 μM, read-out: Percent Gcase Activation, 1 μM Test Compound
T1 sequence (P04062 40-536): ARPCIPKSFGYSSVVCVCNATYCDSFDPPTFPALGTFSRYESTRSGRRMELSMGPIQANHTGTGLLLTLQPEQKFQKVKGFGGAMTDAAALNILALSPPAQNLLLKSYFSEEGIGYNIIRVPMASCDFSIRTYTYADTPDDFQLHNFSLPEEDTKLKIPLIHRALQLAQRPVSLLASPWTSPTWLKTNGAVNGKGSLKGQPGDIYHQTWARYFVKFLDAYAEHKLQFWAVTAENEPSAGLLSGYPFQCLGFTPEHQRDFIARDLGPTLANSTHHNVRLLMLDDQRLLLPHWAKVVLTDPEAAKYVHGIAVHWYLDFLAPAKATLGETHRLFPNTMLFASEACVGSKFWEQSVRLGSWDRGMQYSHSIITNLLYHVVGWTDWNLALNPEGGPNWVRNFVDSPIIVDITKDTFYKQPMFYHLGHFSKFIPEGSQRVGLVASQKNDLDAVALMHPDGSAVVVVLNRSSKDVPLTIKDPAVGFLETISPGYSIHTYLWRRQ
Procedure, shortened: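 Compounds tested at 1.0 and 0.1 μM, then in 8-point 3-fold curves, were pre-incubated 30 min at room temperature with 10 nM GCase plus 100 nM saposin C in PS/triton micelles, pH 4.7. Reaction with substrate (2 mM in micelles before mixing) ran 15 min; stopped at pH 12.5, read at ex 365/em 440 nm.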

[2] = Compound solubility in water; format: physicochemical; settings: in water

Row | activation at 0.1 µM [1] | activation at 1 µM [1] | solubility [2] | SMILES
1 | > 20% | > 60% | 1.2 µg/mL (≈ 2.88 µM) | Cc1cc(-c2cc(F)cc(C#N)c2)nc2c(C(=O)NC(C3CC3)C(F)(F)F)ncn12 (stereo not drawn) [IV-110]
2 | 10 to 20% | > 60% | 0.9 µg/mL (≈ 2.56 µM) | Cc1cc(-c2cc(F)cc(C#N)c2)nc2c(C(=O)NC(C)(C)C)ncn12 [IV-111]
3 | 10 to 20% | > 60% | 1.1 µg/mL (≈ 2.64 µM) | Cc1cc(-c2cccc(C(N)=O)c2)nc2c(C(=O)NC(C3CC3)C(F)(F)F)ncn12 (stereo not drawn) [IV-112]
4 | > 20% | > 60% | 17.2 µg/mL (≈ 41.2 µM) | Cc1cc(N2CCCC(F)(F)C2)nc2c(C(=O)NC(C3CC3)C(F)(F)F)ncn12 (stereo not drawn) [IV-113]
5 | < 10% | < 30% | 32.8 µg/mL (≈ 97.2 µM) | Cc1cc(Oc2cccnc2)nc2c(C(=O)N[C@@H](C)C3CC3)ncn12 [IV-114]
6 | < 10% | < 30% | 29.6 µg/mL (≈ 87.7 µM) | Cc1cc(Oc2ccncc2)nc2c(C(=O)N[C@@H](C)C3CC3)ncn12 [IV-115]
7 | > 20% | > 60% | 1.1 µg/mL (≈ 2.43 µM) | Cc1cc(-c2cccc(-c3ncccn3)c2)nc2c(C(=O)NC(C3CC3)C(F)(F)F)ncn12 (stereo not drawn) [IV- 61]
